Results as given in PubChem BioAssay (NCI).
“And” between values parts separate entries of the source, which are not always exact repeats. Equal values may be shown once.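 Tested at 5 concentrations; 48 h exposure; 96-well plates; endpoints linearly interpolated, else capped at highest concentration. Abbreviation: GI50, concentration required for 50% inhibition of growth. TGI: concentration producing complete growth inhibition.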 Where a SMILES comes first, the peptide text is derived from it. [ ]: non-standard residue; d: D form. pGlu = O=C1CC[CH](C(=O)O)N1

Legend:
Experiment in all cases: NCI anticancer screen, dose series, 48 h
A549 NSCLC = system: A549 NSCLC
MDA-MB-231 breast = system: MDA-MB-231 breast
SK-MEL-5 melanoma = system: SK-MEL-5 melanoma
786-0 renal = system: 786-0 renal
SF-539 CNS = system: SF-539 CNS
NCI-H522 lung = system: NCI-H522 lung
HOP-62 NSCLC = system: HOP-62 NSCLC
HT29 colon = system: HT29 colon
SNB-19 CNS = system: SNB-19 CNS
LOX IMVI melanoma = system: LOX IMVI melanoma

SMILES	TGI (A549 NSCLC)	TGI (MDA-MB-231 breast) [µM]	TGI (SK-MEL-5 melanoma) [µM]	TGI (786-0 renal) [µM]	TGI (SF-539 CNS)	TGI (NCI-H522 lung)	TGI (HOP-62 NSCLC) [µM]	TGI (HT29 colon)	TGI (SNB-19 CNS)	TGI (LOX IMVI melanoma)	GI50 (A549 NSCLC) [µM]	GI50 (MDA-MB-231 breast) [nM]	GI50 (SK-MEL-5 melanoma) [nM]	GI50 (SF-539 CNS) [nM]	GI50 (HT29 colon) [nM]	GI50 (NCI-H522 lung) [nM]	GI50 (SNB-19 CNS) [µM]	GI50 (HOP-62 NSCLC) [nM]	GI50 (LOX IMVI melanoma) [µM]
COc1c(-c2cccs2)oc2c(CC(=O)O)cccc2c1=O	> 100 µM	> 100	> 100	> 100	> 100 µM	> 100 µM	> 100	–	–	–	–	–	–	–	–	–	–	–	–
O=C(O)CN(CC(=O)O)Cc1ccn(-c2cccc(-n3ccc(CN(CC(=O)O)CC(=O)O)n3)n2)n1	> 100 µM	> 100	> 100	> 100	> 100 µM	> 100 µM	> 100	> 100 µM	> 100 µM	–	–	–	–	–	–	–	–	–	–
CCCCNC(=S)c1ccc(OC(=O)Nc2ccc(Cl)cc2)cc1	> 100 µM	–	> 100	> 100	> 100 µM	> 100 µM	> 100	> 100 µM	> 100 µM	> 100 µM	–	–	–	–	–	–	–	–	–
CCCC(=O)Nc1cc(/C=C/C(=O)N2CC(CCl)c3c2cc([N+](=O)[O-])c2ccccc32)n(C)c1 (stereo unspecified)	> 100 µM	> 100	> 100	> 100	> 100 µM	> 100 µM	> 100	> 100 µM	> 100 µM	–	–	–	–	–	–	–	–	–	–
O=C1C2=C(CCCCC2)C2CCCCC12O (stereo unspecified)	> 100 µM	–	–	> 100	> 100 µM	> 100 µM	> 100	> 100 µM	> 100 µM	> 100 µM	–	–	–	–	–	–	–	–	–
COc1ccc2c(c1)CC1(O)COc3cc(OC)ccc3C1O2 (stereo unspecified)	> 100 µM	> 100	> 100	> 100	> 100 µM	> 100 µM	> 100	> 100 µM	–	> 100 µM	–	–	–	–	–	–	–	–	–
CC(NC(=O)C(Cc1cnc[nH]1)NC(=O)C1CCC(=O)N1)C(N)=O (stereo not drawn) ([pGlu]-His-Ala-NH2; configuration not given here)	> 100 µM	> 100	> 100	> 100	–	–	> 100	> 100 µM	> 100 µM	> 100 µM	–	–	–	–	–	–	–	–	–
CC(O)c1cc2c(s1)C(=O)c1scc(C(C)O)c1C2=O (stereo unspecified)	3.98 µM	–	0.351	6.39	–	2.56 µM	–	5.27 µM	1.66 µM	> 100 µM	–	–	–	–	–	–	–	–	–
Cc1ccc(C(=O)C2=CN=C3C(=O)N(c4ccccc4)N(C)C3(C)C2=N)cc1 (stereo unspecified)	> 100 µM	> 100	> 100	> 100	> 100 µM	> 100 µM	–	–	–	> 100 µM	–	–	–	–	–	–	–	–	–
Cn1cc(-c2nc(-c3c[nH]c4ccncc34)cs2)c2cc(F)ccc21	3.57 µM	3.1	3.03	–	3.1 µM	3.23 µM	3.3	2.93 µM	3.38 µM	–	1.85	1550	1650	1680	1440	1670	1.83	1730	–
C=C1C(=O)O[C@@H]2OC3(C)CCC4C(C)CCC1C42OO3 (stereo partly specified)	23.1 µM and 18.7 µM	–	17.2	–	11.7 µM and 6.62 µM	3.88 µM and 3.16 µM	36.7	11.2 µM and 6.73 µM	26.5 µM and 27.9 µM	12.9 µM and 8.11 µM	7.23	–	–	3070	3210	–	12.6	–	3.55
COc1ccc(CCNC(=O)CCCCCO)cc1OC	> 100 µM	> 100	> 100	> 100	> 100 µM	> 100 µM	> 100	> 100 µM	> 100 µM	–	–	–	–	–	–	–	–	–	–
CO[C@H]1C[C@H](n2cc(C)c(=O)[nH]c2=O)O[C@@H]1CO	> 100 µM	> 100	> 100	> 100	> 100 µM	–	> 100	> 100 µM	> 100 µM	> 100 µM	–	–	–	–	–	–	–	–	–
CCOC(=O)Cn1nnc2cc(Nc3nc4ccccc4nc3C(=O)OCC)ccc21	> 100 µM	–	> 100	> 100	58.6 µM	> 100 µM	79.6	> 100 µM	> 100 µM	> 100 µM	–	–	–	–	–	–	–	–	–
COc1cc2cc3c4c(cc(OC)c(OC)c4c2cc1OC)CCN3C(=O)N(C)C	> 100 µM	–	> 100	> 100	> 100 µM	> 100 µM	> 100	> 100 µM	> 100 µM	> 100 µM	–	–	–	–	–	–	–	–	–
COC(=O)c1c(O)ccc2c1c1c(n2Cc2ccccc2OC)C(=O)c2ccccc2C1	> 100 µM	> 100	> 100	> 100	> 100 µM	–	> 100	> 100 µM	> 100 µM	> 100 µM	–	–	–	–	–	–	–	–	–
O=C(Cc1ccccc1)N=Nc1c(O)[nH]c2ccccc12	> 100 µM	> 100	> 100	> 100	> 100 µM	> 100 µM	> 100	> 100 µM	> 100 µM	–	–	–	–	–	–	–	–	–	–
COC(=O)[C@@]12OC[C@]34C([C@@H](O)C1O)[C@@]1(C)CC(=O)C(O)=C(C)C1C[C@H]3OC(=O)[C@H](OC(=O)/C=C(/c1ccccc1)C(F)(F)F)[C@H]42 (stereo partly specified)	20.2 µM	–	13.4	> 25	3.75 µM	13.7 µM	> 25	15 µM	14.2 µM	–	–	–	–	–	–	–	–	–	–
Cc1cc(C)c2c(=N)c3ccccc3n(CCCCCCn3c4ccccc4c(=N)c4c(C)cc(C)nc43)c2n1	3.03 µM	1.09	3.39	0.816	3.01 µM	2.31 µM	1.44	1.68 µM	2.11 µM	–	–	–	–	–	–	–	–	–	–
CCCCCCCC(=O)OCC(C[As](=O)(O)O)OC(=O)CCCCCCC (stereo unspecified)	53.3 µM	–	32	30.9	27.1 µM	26.6 µM	34.5	33.4 µM	28.2 µM	–	–	–	–	–	–	–	–	–	–
CC(C)=CCCC1(Sc2ccccc2)C(=O)OCC1C=C(C)C (stereo unspecified)	78.1 µM	> 100	36.7	73.7	47.9 µM	47.4 µM	> 100	–	> 100 µM	30.1 µM	–	–	–	–	–	–	–	–	–
CCOC(=O)c1nc2cc(C(F)(F)F)ccc2nc1Nc1ccc(F)cc1	> 100 µM	> 100	> 100	> 100	55.9 µM	–	> 100	> 100 µM	–	> 100 µM	–	–	–	–	–	–	–	–	–
CC1CC(=O)Nc2ccc(N=NN(C)C)cc2N1C=O (stereo unspecified)	> 100 µM	> 100	> 100	> 100	–	> 100 µM	> 100	> 100 µM	> 100 µM	–	–	–	–	–	–	–	–	–	–
